Measurements as given in PMC11851449, “Blm10-Based Compounds Add to the Knowledge of How Allosteric Modulators Influence Human 20S Proteasome” (ACS Chemical Biology, 2025).

What was measured:
[1] = system: T1, human 20S proteasome; experiment: ChT-L peptidase activity of latent h20S probed with Suc-LLVY-AMC; type: biochemical; details: 10 μM bortezomib, Suc-LLVY-AMC 100 μM; activators could not overcome the inhibition
T1 construct: 20S proteasome was isolated from human erythrocytes; from tissue; host or cells: human erythrocytes
Procedure: (§1) The capacity of influencing the human 20S proteasome was examined using the latent enzyme isolated from human erythrocytes. Boc-LRR-AMC, Z-LLE-AMC, and Suc-LLVY-AMC fluorogenic substrates (Enzo Life Sciences Inc.) were used for assessment of the trypsin-, caspase-, and chymotrypsin-like activities, respectively. As an additional probe, we utilized a homemade FRET-type substrate DabEDS (Lys(Dabcyl)-[…]EDANS)-Gly[36]). Stock solutions of the substrates and modulators were prepared in dimethyl sulfoxide (DMSO). […] The activity assays were performed in a 96-well plate format in 50 mM Tris/HCl, pH 8.0. The CP was used at a final concentration of 0.002 mg mL^–1 (2.8 nM). The final concentrations of LLVY, LRR, and LLE substrates were 100 μM and DabEDS 15 μM. The concentration of reagents in the tests with inhibitors was as follows: 10 μM bortezomib (tebu-bio), 50 μM leupeptin (Roth), and 10 μM activators. The release of the aminomethylcoumarin (AMC) reporter group was followed by monitoring the fluorescence emission at 460 nm (λex was 380 nm). DabEDS hydrolysis was detected by measuring the emission at 493 nm, while the excitation wavelength was set at 335 nm. Fluorescence measurements were carried out using an Infinite M200 Pro plate reader (Tecan), every 2 min for up to 60 min at 37 °C. All activity assays were performed in at least three independent replicates.

[2] = system: T1, human 20S proteasome; experiment: C-L peptidase activity of latent h20S probed with Z-LLE-AMC; type: biochemical; details: 10 μM bortezomib
Procedure: as §1

inhibition of h20S ChT-L activity (in words) [1]: complete loss of proteasome activity
SMILES: CC(C)C[C@H](NC(=O)[C@H](Cc1ccccc1)NC(=O)c1cnccn1)B(O)O [bortezomib]
inhibition of h20S C-L activity (in words) [2]: completely blocked the activity of the ChT-L and C-L
